Data reported in paper PMC3401038 (ACS Chemical Biology, 2012).

Tests used:
[1] = test system: M. tuberculosis H37Rv; assay type: cell-based, Mycobacterium tuberculosis; settings: hypoxic shift down M. tuberculosis H37Rv, result in words
[2] = test system: M. tuberculosis H37Rv; assay type: cell-based, Mycobacterium tuberculosis; settings: hypoxic shift down M. tuberculosis, 5 days treatment, result in words
[3] = test system: M. bovis BCGMtbNar; assay type: cell-based, Mycobacterium bovis BCG

SMILES | effect on ATP levels [1] | bacterial viability (CFU) [2] | effect on ATP pool / intracellular ATP levels [3]
O=[N+]([O-])c1cn2c(n1)OC[C@@H](OCc1ccc(OC(F)(F)F)cc1)C2 [PA-824] | reduction in ATP levels | reduction in bacterial viability | 
COc1nc2ccc(Br)cc2cc1[C@@H](c1ccccc1)[C@@](O)(CCN(C)C)c1cccc2ccccc12 [TMC207] | reduction in ATP levels | reduction in bacterial viability | significantly reduce the ATP pool
Cc1ncc([N+](=O)[O-])n1CCO [metronidazole] |  |  | not affected
